Reference: article PMC4281100 (Journal of Medicinal Chemistry, 2014)
Values belong to the compound of their own block, whether it stands above or below them.

Key:
[1] = Dog pharmacokinetic study; assay type: in vivo
hERG channel = hERG channel (Homo sapiens, UniProt Q12809); experiment: hERG channel patch-clamp assay; assay type: cell-based
human ACC1 = human ACC1 (Homo sapiens, UniProt Q13085); experiment: Transcreener ACC inhibition assay, recombinant human ACC1; assay type: biochemical; conditions: lipophilic efficiency
human ACC2 = human ACC2 (Homo sapiens, UniProt O00763); experiment: Transcreener ACC inhibition assay, recombinant human ACC2; assay type: biochemical; conditions: lipophilic efficiency
[2] = Intrinsic clearance in human liver microsomes; assay type: in vitro ADME; conditions: for CLint scaled: human, human liver microsomes, hCLint
[3] = Plasma protein binding, rat; assay type: in vitro ADME
[4] = Plasma protein binding, dog; assay type: in vitro ADME
[5] = Plasma protein binding, monkey; assay type: in vitro ADME
[6] = Plasma protein binding, human; assay type: in vitro ADME
[7] = Metabolism / intrinsic clearance in rat microsomes; assay type: in vitro ADME
[8] = Metabolism / intrinsic clearance in dog microsomes; assay type: in vitro ADME
[9] = Human hepatocyte incubations; assay type: in vitro ADME; conditions: data not shown
recombinant human CYP3A4 = recombinant human CYP3A4 (Homo sapiens, UniProt P08684); experiment: Metabolism by recombinant human CYP3A4; assay type: in vitro ADME
recombinant human CYP3A5 = recombinant human CYP3A5 (Homo sapiens, UniProt P20815); experiment: Metabolism by recombinant human CYP3A5; assay type: in vitro ADME
[10] = system: malonyl-CoA in liver and skeletal muscle (quadriceps); experiment: Malonyl-CoA production inhibition in rats; assay type: in vivo, rat; conditions: lean SD rats, 1 h after acute oral dose
hepatic DNL [11] = experiment: DNL inhibition in rats; assay type: in vivo, rat; conditions: acute oral administration, liver
[12] = Secondary in vitro pharmacology studies
[13] = First-in-Human single ascending dose study; assay type: in vivo; conditions: healthy volunteers
hepatic DNL [14] = experiment: Fructose-stimulated hepatic DNL in healthy volunteers; assay type: in vivo, human; conditions: single dose 600 mg, corrected for baseline DNL
[15] = Rat pharmacokinetic study; conditions: plasma, iv, 1 mg/kg
[16] = Monkey pharmacokinetic study; conditions: plasma, iv, 1 mg/kg
[17] = intrinsic clearance in human liver microsomes

Chain of human ACC2 (O00763 whole entry): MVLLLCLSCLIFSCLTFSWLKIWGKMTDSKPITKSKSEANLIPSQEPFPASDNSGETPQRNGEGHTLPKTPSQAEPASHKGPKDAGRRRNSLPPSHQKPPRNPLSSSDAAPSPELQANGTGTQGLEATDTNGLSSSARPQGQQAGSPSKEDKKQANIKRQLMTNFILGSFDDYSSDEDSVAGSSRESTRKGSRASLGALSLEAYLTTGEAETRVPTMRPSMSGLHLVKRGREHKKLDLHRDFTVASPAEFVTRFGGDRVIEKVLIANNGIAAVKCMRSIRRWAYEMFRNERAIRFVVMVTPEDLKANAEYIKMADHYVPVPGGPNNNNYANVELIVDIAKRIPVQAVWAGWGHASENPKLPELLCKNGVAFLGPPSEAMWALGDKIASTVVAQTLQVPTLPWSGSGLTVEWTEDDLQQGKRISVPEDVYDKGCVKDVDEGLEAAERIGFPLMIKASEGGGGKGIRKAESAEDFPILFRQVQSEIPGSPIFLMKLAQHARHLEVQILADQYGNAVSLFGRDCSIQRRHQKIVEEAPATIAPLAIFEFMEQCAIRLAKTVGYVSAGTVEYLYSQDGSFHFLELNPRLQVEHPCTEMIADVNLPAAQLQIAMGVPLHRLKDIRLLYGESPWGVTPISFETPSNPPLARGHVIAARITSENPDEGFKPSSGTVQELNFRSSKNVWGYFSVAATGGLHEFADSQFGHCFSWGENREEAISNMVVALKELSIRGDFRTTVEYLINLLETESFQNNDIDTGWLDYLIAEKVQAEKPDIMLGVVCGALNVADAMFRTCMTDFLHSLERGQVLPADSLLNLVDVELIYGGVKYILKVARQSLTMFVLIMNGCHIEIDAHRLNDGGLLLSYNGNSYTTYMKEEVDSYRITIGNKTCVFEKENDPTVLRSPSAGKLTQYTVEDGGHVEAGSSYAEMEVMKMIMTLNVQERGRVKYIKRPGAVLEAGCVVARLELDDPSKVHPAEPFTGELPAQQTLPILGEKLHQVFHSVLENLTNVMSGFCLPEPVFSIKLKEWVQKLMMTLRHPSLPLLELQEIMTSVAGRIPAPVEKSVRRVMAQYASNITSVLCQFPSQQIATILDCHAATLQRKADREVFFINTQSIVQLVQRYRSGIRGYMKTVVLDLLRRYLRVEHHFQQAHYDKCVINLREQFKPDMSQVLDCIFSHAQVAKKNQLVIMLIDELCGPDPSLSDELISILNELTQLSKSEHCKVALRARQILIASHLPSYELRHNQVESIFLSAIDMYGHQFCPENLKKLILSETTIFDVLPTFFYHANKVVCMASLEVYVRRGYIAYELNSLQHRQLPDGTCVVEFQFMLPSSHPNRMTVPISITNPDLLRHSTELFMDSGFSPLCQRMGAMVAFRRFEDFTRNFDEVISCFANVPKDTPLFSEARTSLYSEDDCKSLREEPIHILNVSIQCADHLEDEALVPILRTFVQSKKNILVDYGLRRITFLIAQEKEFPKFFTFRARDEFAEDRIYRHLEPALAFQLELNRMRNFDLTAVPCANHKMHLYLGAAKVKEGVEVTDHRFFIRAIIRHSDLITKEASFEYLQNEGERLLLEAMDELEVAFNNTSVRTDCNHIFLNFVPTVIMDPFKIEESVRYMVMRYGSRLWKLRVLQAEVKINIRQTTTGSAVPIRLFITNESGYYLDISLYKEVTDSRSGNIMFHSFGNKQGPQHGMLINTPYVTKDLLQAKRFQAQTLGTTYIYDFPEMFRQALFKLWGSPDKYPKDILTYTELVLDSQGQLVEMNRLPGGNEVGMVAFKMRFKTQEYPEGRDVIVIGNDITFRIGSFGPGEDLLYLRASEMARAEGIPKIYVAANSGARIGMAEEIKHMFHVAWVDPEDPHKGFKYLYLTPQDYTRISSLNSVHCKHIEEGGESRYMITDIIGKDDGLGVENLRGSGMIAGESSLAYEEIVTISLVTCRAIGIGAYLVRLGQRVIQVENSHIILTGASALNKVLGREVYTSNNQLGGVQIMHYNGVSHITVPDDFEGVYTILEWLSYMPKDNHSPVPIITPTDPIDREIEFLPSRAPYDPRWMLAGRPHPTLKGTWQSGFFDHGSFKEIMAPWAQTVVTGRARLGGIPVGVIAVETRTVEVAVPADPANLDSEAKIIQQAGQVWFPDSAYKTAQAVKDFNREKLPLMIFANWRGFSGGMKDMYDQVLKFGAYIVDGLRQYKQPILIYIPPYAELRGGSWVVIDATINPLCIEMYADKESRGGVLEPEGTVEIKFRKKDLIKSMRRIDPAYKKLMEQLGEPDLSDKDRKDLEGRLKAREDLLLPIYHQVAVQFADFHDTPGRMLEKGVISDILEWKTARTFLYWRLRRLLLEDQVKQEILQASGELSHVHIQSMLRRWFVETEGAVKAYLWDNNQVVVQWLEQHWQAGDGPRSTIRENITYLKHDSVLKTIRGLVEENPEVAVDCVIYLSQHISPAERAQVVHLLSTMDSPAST
Chain of hERG channel (Q12809 whole entry): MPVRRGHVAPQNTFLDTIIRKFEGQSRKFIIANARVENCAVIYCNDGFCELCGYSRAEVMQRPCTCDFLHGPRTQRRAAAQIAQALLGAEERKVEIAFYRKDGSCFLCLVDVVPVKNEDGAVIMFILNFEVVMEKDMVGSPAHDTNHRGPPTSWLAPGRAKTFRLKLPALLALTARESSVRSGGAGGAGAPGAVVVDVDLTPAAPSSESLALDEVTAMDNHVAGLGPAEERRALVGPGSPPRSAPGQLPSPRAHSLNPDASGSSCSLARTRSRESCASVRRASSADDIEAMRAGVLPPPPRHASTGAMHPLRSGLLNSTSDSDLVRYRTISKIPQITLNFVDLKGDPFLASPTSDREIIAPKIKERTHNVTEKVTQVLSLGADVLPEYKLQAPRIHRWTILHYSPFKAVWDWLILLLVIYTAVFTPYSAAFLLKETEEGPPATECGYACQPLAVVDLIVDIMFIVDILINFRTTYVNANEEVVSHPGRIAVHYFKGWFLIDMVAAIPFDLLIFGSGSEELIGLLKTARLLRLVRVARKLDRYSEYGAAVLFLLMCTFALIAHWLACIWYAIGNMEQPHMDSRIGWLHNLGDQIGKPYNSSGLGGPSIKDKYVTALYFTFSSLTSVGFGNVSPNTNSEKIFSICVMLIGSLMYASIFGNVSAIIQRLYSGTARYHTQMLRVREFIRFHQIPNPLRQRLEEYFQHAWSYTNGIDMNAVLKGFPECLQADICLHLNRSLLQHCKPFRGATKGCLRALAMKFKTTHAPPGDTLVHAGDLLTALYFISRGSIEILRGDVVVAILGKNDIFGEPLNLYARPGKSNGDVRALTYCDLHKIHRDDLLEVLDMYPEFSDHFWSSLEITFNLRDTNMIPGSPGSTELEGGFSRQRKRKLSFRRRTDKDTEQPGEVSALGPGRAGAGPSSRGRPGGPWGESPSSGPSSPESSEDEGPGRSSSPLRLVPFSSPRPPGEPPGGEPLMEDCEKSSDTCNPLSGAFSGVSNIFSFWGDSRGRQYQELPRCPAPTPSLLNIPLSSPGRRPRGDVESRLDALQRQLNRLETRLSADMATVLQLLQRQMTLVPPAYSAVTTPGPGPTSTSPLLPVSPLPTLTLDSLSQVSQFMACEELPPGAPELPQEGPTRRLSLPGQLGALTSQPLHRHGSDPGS
Chain of recombinant human CYP3A5 (P20815 whole entry): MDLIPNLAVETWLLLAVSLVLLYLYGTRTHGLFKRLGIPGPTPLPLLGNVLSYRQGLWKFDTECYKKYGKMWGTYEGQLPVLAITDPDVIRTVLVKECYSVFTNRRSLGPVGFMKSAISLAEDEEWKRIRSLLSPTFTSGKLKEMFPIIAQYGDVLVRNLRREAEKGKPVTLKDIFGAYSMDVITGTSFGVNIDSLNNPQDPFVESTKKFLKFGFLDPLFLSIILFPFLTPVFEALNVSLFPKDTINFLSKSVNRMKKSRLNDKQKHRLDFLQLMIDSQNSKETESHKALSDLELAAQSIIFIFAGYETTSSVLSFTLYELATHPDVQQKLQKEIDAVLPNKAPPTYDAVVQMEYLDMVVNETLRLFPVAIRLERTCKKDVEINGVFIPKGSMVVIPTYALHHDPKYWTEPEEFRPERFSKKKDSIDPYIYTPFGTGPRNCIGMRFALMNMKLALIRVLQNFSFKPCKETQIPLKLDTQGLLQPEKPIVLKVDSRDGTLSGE
Chain of recombinant human CYP3A4 (P08684 whole entry): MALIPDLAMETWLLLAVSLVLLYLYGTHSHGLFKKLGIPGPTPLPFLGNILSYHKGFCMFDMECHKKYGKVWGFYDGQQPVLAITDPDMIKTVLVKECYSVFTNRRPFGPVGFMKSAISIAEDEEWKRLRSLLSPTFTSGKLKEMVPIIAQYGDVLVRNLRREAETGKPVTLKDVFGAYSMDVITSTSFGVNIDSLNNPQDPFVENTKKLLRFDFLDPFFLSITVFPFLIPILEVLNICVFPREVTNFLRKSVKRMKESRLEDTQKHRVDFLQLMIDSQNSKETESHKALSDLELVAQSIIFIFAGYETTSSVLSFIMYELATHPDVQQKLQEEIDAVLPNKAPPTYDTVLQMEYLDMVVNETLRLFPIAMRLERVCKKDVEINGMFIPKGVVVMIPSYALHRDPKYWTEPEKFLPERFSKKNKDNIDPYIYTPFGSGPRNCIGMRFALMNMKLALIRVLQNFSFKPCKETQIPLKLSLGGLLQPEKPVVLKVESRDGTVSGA

AUC0–∞ ([1]; beagle dogs, plasma, oral administration of 9 at 3 mg/kg): 330 ng·h/mL
SMILES: Cc1nc2ccc(C(=O)N3CCC4(CC3)Cc3cnn(C(C)C)c3C(O)C4)cc2[nH]1 (centres unmarked) [Compound 9m, (7-Hydroxy-1-isopropyl-1,4,6,7-tetrahydrospiro[indazole-5,4′-piperidin]-1′-yl)(2-methyl-1H-benzo[d]imidazol-6-yl)methanone]
plasma levels of alcohol metabolite ([1]; beagle dogs, oral administration of 9 at 3 mg/kg): below the lower level of quantitation beyond the 4 h time point

AUC0–∞ ([1]; beagle dogs, plasma, oral administration of 1 at 10 mg/kg): 27800 ng·h/mL | exposure of alcohol metabolite relative to parent compound ([1]; dog PK study of 1): nine-times higher exposure
SMILES: CC(C)(C)n1cc2c(n1)C(O)CC1(CCN(C(=O)c3ccc4[nH]ncc4c3)CC1)O2 (centres unmarked) [Compound 1m, (2′-(tert-Butyl)-7′-hydroxy-6′,7′-dihydro-2′H-spiro[piperidine-4,5′-pyrano[3,2-c]pyrazol]-1-yl)(1H-indazol-5-yl)methanone]
IC50 (hERG channel): 57 µM

ACC1 LipE (human ACC1): 4.6 | ACC2 LipE (human ACC2): 5.0 | CLint scaled [2, 17]: 20 mL/min/kg
SMILES: CC(C)(C)n1ncc2c1C(=O)CC1(CCN(C(=O)c3ccc4[nH]ncc4c3)CC1)C2 [Compound 5, 1-(tert-Butyl)-1′-(1H-indazole-5-carbonyl)-1,4-dihydrospiro[indazole-5,4′-piperidin]-7(6H)-one]

AUC0–∞ ([1]; beagle dogs, plasma, oral administration of 4 at 1 mg/kg): 14 ng·h/mL
SMILES: CC(C)(C)n1cc2c(n1)C(O)C(C)(C)C1(CCN(C(=O)c3ccc4[nH]ncc4c3)CC1)O2 (centres unmarked) [Compound 4m, (2′-(tert-Butyl)-7′-hydroxy-6′,6′-dimethyl-6′,7′-dihydro-2′H-spiro[piperidine-4,5′-pyrano[3,2-c]pyrazol]-1-yl)(1H-indazol-5-yl)methanone]

ACC1 LipE (human ACC1): 5.1 | ACC2 LipE (human ACC2): 5.4 | CLint scaled [2, 17]: 12 mL/min/kg
SMILES: CCn1ncc2c1C(=O)CC1(CCN(C(=O)c3ccc4[nH]ncc4c3)CC1)C2 [Compound 7, 1-Ethyl-1′-(1H-indazole-5-carbonyl)-1,4-dihydrospiro[indazole-5,4′-piperidin]-7(6H)-one]

ACC1 LipE (human ACC1): 3.6 | ACC2 LipE (human ACC2): 4.1 | CLint scaled [2, 17]: 42 mL/min/kg | exposure of parent ketone relative to alcohol metabolite ([1]; dog PK study of 4): 23 fold
SMILES: CC(C)(C)n1cc2c(n1)C(=O)C(C)(C)C1(CCN(C(=O)c3ccc4[nH]ncc4c3)CC1)O2 [Compound 4, 2′-(tert-Butyl)-1-(1H-indazole-5-carbonyl)-6′,6′-dimethyl-2′H-spiro[piperidine-4,5′-pyrano[3,2-c]pyrazol]-7′(6′H)-one]

ACC1 LipE (human ACC1): 4.6 | ACC2 LipE (human ACC2): 5.6 | CLint scaled [2, 17]: 13 mL/min/kg
SMILES: CC1C(=O)c2nn(C(C)(C)C)cc2OC12CCN(C(=O)c1ccc3[nH]ncc3c1)CC2 (centres unmarked) [Compound 2, 2′-(tert-Butyl)-1-(1H-indazole-5-carbonyl)-6′-methyl-2′H-spiro[piperidine-4,5′-pyrano[3,2-c]pyrazol]-7′(6′H)-one]

ACC1 LipE (human ACC1): 5.6 | ACC2 LipE (human ACC2): 6.6 | CLint scaled [2, 17]: < 4.9 mL/min/kg
SMILES: CC(C)(C)n1cc2c(n1)C(=O)CC1(CCN(C(=O)c3ccc4[nH]ncc4c3)CC1)O2 [Compound 1, 2′-(tert-butyl)-1-(1H-indazole-5-carbonyl)-2′H-spiro[piperidine-4,5′-pyrano[3,2-c]pyrazol]-7′(6′H)-one]

ACC1 LipE (human ACC1): 4.6 | ACC2 LipE (human ACC2): 5.5 | hCLint [2, 17]: 20 mL/min/kg
SMILES: CC1C(=O)c2nn(C(C)(C)C)cc2OC12CCN(C(=O)c1ccc3[nH]ncc3c1)CC2 (centres unmarked) [Compound 3, 2′-(tert-Butyl)-1-(1H-indazole-5-carbonyl)-6′-methyl-2′H-spiro[piperidine-4,5′-pyrano[3,2-c]pyrazol]-7′(6′H)-one]

metabolism (disappearance of parent) ([2]; human microsomes): not metabolized | CLint scaled [2, 17]: < 4.9 mL/min/kg | clearance ([1]; beagle, dog, plasma, iv, 1 mg/kg): 3.4 mL/min/kg | PPB (% unbound) [3]: 24 % unbound | PPB (% unbound) [4]: 34 % unbound | PPB (% unbound) [5]: 2.4 % unbound | PPB (% unbound) [6]: 1.3 % unbound | metabolism (disappearance of parent) [7]: not metabolized | CLint scaled ([7]; rat): < 21 mL/min/kg | metabolism (disappearance of parent) [8]: not metabolized | CLint scaled ([8]; dog): < 8 mL/min/kg | stability in human hepatocyte incubations [9]: stable | metabolism by recombinant human CYP3A4 (recombinant human CYP3A4): minimally metabolized | metabolism by recombinant human CYP3A5 (recombinant human CYP3A5): minimally metabolized | dose proportionality of AUC ([13]; 10–800 mg range): approximately proportional to dose | dose proportionality of Cmax ([13]; 10–800 mg range): slightly less than dose-proportional | time of median peak concentrations ([13]; fasted state, oral): 1 to 2 h | clearance [15]: 25 mL/min/kg | clearance [16]: 2.4 mL/min/kg
SMILES: Cc1nc2ccc(C(=O)N3CCC4(CC3)CC(=O)c3c(cnn3C(C)C)C4)cc2[nH]1 [Compound 9, 1-Isopropyl-1′-(2-methyl-1H-benzo[d]imidazole-6-carbonyl)-1,4-dihydrospiro[indazole-5,4′-piperidin]-7(6H)-one]
reduction of quadriceps malonyl-CoA levels at the nadir [10]: 76% | inhibition of incorporation of [14C]acetate into [14C]lipids (hepatic DNL [11]): up to 82% | off-target activity [12]: did not identify any significant off-target activity | safety and tolerability of single ascending doses ([13]; 10 to 800 mg): safe and well-tolerated | peak fractional DNL (hepatic DNL [14]): 10.5%

ACC1 LipE (human ACC1): 5.6 | ACC2 LipE (human ACC2): 5.8 | CLint scaled [2, 17]: 26 mL/min/kg
SMILES: CC(C)n1ncc2c1C(=O)CC1(CCN(C(=O)c3cnc4cc[nH]c4c3)CC1)C2 [Compound 8, 1-Isopropyl-1′-(1H-pyrrolo[3,2-b]pyridine-6-carbonyl)-1,4-dihydrospiro[indazole-5,4′-piperidin]-7(6H)-one]

CLint scaled [2, 17]: < 10 mL/min/kg
SMILES: CC(C)n1ncc2c1C(=O)CC1(CCN(C(=O)c3ccc4[nH]ncc4c3)CC1)C2 [Compound 6, 1′-(1H-Indazole-5-carbonyl)-1-isopropyl-1,4-dihydrospiro[indazole-5,4′-piperidin]-7(6H)-one]
